{"source": "paper PMC10017027", "about": "“Design and Synthesis of Novel HIV-1 NNRTIs with Bicyclic Cores and with Improved Physicochemical Properties” (Journal of Medicinal Chemistry, 2023)", "key": {"HIV-1 (IIIB strain)": {"test_system": "HIV-1 (IIIB strain)", "assay": "MT-4 antiviral cytopathic effect assay, HIV-1 IIIB", "assay_type": "cell-based", "procedure": "(§1) The prepared compounds were tested for their anti-HIV-1 activity (Table 1). A viral cytopathic effect assay in MT-4 cells with HIV-1 IIIB virus was used to determine compound potency (EC50, 50% cell viability) in protecting virus induced cell killing. Compound cytotoxicity was assessed in MT-4 cells in the absence of virus (CC50, 50% cytotoxicity).\n(§2) Compounds were tested in a high-throughput 384-well assay format for their ability to inhibit the virus replication-induced cytopathic effect in MT-4 cell cultures acutely infected with HIV-1 (IIIB strain), HXB2, HXB2-K103N, and HXB2-Y181C. Compounds were serially diluted (1:3) in DMSO on 384-well polypropylene plates and further diluted 200-fold into complete RPMI media (10% FBS, 1% P/S) using Biotek Micro Flow and an Agilent ECHO acoustic dispenser. Each plate contained up to eight test compounds, with negative (no drug control) and 5 μM AZT positive controls. MT-4 cells were further diluted in complete RPMI media and added to each plate using a Micro-Flo dispenser. After five days of incubation in a humidified and temperature-controlled incubator (37 °C), Cell Titer Glo (Promega) was added to the assay plates to quantify the amount of […]. EC50 and CC50 values were defined as the compound concentration that causes a 50% decrease in luminescence signal and were calculated using a sigmoidal dose-response model to generate curve fits."}, "in vitro": {"assay": "in vitro", "assay_type": "cell-based", "settings": "human", "procedure": "as §1, with “cytotoxicity). […] ETV contains bromo and amino substitutions on the DAPY core. […] Likely, with the smaller cyano arm I in 1, 3, and 5, the cores could be further elaborated to optimize the compound position in the pocket and to improve potency.” for “cytotoxicity).”\nas §2"}, "HIV-1 HXB2 K103N variant": {"test_system": "HIV-1 HXB2 K103N variant", "assay": "MT-4 antiviral cytopathic effect assay, HXB2-K103N", "assay_type": "cell-based", "procedure": "as §1, with “cytotoxicity). […] ETV contains bromo and amino substitutions on the DAPY core. […] Likely, with the smaller cyano arm I in 1, 3, and 5, the cores could be further elaborated to optimize the compound position in the pocket and to improve potency.” for “cytotoxicity).”\nas §2"}, "HIV-1 HXB2 Y181C variant": {"test_system": "HIV-1 HXB2 Y181C variant", "assay": "MT-4 antiviral cytopathic effect assay, HXB2-Y181C", "assay_type": "cell-based", "procedure": "as §1, with “cytotoxicity). […] ETV contains bromo and amino substitutions on the DAPY core. […] Likely, with the smaller cyano arm I in 1, 3, and 5, the cores could be further elaborated to optimize the compound position in the pocket and to improve potency.” for “cytotoxicity).”\nas §2"}, "[1]": {"assay": "Solubility assessment, shake-flask method", "assay_type": "physicochemical", "settings": "for solubility: shake-flask", "procedure": "Compound solubility was measured at Analiza (Cleveland, OH) by the standard shake-flask method at pH 1.2 and 7.4 and quantitated by HPLC-UV."}, "[2]": {"settings": "preliminary biological data, in words"}, "[3]": {"settings": "supplement CSV, fold change vs HXB2"}}, "note": "pEC50: −log10 of the molar value. Read-outs that look alike come from different tables or passages of the source."}
{"smiles": "Cc1cc(C#N)cc(C)c1N1CC(=O)Nc2cnc(Nc3ccc(C#N)cc3)nc21", "note": "[Compound 3, 4-(2-((4-Cyanophenyl)amino)-6-oxo-6,7-dihydropteridin-8(5H)-yl)-3,5-dimethylbenzonitrile]", "values": [{"measurement": "pEC50", "setting": "HIV-1 (IIIB strain); Human immunodeficiency virus 1, HXB2 / IIIB, range over HIV-1 IIIB and HXB2, read-out: EC50 against both wild-type viruses", "result": "8.07 to 8.09"}, {"measurement": "pEC50", "setting": "HIV-1 (IIIB strain); Human immunodeficiency virus 1, IIIB, MT4, protects 50% of MT-4 cells against HIV-1-induced cell killing, HIV-1 IIIB, WT, read-out: EC50 MT4", "result": 8.07}, {"measurement": "activity against the WT virus", "setting": "HIV-1 (IIIB strain); [2]", "result": "low nanomolar activity"}, {"measurement": "CC50 at 5 days", "setting": "in vitro", "result": "> 50000", "unit": "nM"}, {"measurement": "pEC50", "setting": "HIV-1 HXB2 K103N variant; Human immunodeficiency virus 1, HXB2, read-out: EC50 K103N", "result": 7.34}, {"measurement": "K103N (FC)", "setting": "HIV-1 HXB2 K103N variant; fold change: ratio of potency against HXB2 K103N and parental HXB2", "result": 5.6}, {"measurement": "potency against K103N mutated strain", "setting": "HIV-1 HXB2 K103N variant; [2]", "result": "high potency"}, {"measurement": "K103N (FC)", "setting": "HIV-1 HXB2 K103N variant; [3]", "result": 5.6}, {"measurement": "pEC50", "setting": "HIV-1 HXB2 Y181C variant; Human immunodeficiency virus 1, HXB2, read-out: EC50 Y181C", "result": 7.52}, {"measurement": "Y181C (FC)", "setting": "HIV-1 HXB2 Y181C variant; fold change: ratio of potency against HXB2 Y181C and parental HXB2", "result": 3.7}, {"measurement": "potency against Y181C mutated strain", "setting": "HIV-1 HXB2 Y181C variant; [2]", "result": "high potency"}, {"measurement": "Y181C (FC)", "setting": "HIV-1 HXB2 Y181C variant; [3]", "result": 3.7}, {"measurement": "solubility thermodynamic", "setting": "[1]; HCl, pH 1.2, supplement CSV, read-out: HCl sol", "result": "> 100", "unit": "µM"}, {"measurement": "solubility", "setting": "[1]; HCl, pH 1.2, read-out: solubility HCl", "result": "> 100", "unit": "µM"}, {"measurement": "solubility", "setting": "[1]; phosphate-buffered saline, pH 7.4, read-out: solubility PBS", "result": 2.3, "unit": "µM"}, {"measurement": "aqueous solubility", "setting": "[1]; preliminary data, in words", "result": "significantly improved"}, {"measurement": "PBS sol", "setting": "[1]; supplement CSV", "result": 2.3, "unit": "µM"}]}
